According to PubChem BioAssay AID1159565 (GlaxoSmithKline (GSK), 2015):
Activity calls are given as the source filed them. No rule for the calls is given here.

System: T. cruzi-infected H9C2 cardiomyocytes, high-content imaging
Experiment: intracellular T. cruzi amastigote inhibition, imaging, H9C2 host cardiomyocytes, host toxicity (AID 1159565);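 also: infected cells incubated 72 h after plating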
[1] = measured here: H9C2 host cell toxicity
[2] = measured here: amastigotes per cell

Compound: O=C1NCCn2ccc(Nc3nc(NC4CCC(O)CC4)ncc3Cl)c21 (stereo not drawn)
- IC50: 20000 nM
- IC50 [1]: 400 nM
- IC50 [2]: 3200 nM

Compound: OCC1CCCCN1c1cc(-c2ccccn2)nc(Nc2ccccc2)n1 (stereo not drawn)
- IC50: 4000 nM
- IC50 [1]: 500 nM
- IC50 [2]: 2000 nM

Compound: O=c1[nH]c(C=Cc2cccc(OCCOc3ccccc3)c2)nc(O)c1[N+](=O)[O-]
- IC50: 200 nM
- IC50 [1]: > 50000 nM
- IC50 [2]: 160 nM

Compound: CCOc1ccc(NC(=O)c2ccc(NC(=O)NC3CCCCC3)cc2)cc1
- IC50: > 50000 nM (inactive)
- IC50 [1]: > 50000 nM
- IC50 [2]: > 50000 nM

Compound: c1cncc(CN(Cc2ccco2)Cc2cn[nH]c2-c2cccs2)c1
- IC50: 50 nM
- IC50 [1]: > 50000 nM
- IC50 [2]: 40 nM

Compound: COc1ccc(CNc2cc(C3CC3)nc(-c3nccn3C)n2)cc1
- IC50: 790 nM
- IC50 [1]: 1000 nM
- IC50 [2]: 630 nM

Compound: Cc1nn(-c2nc(N)nc(-c3ccccn3)n2)c(N)c1-c1ccccc1
- IC50: 5000 nM
- IC50 [1]: 13000 nM
- IC50 [2]: 1300 nM

Compound: c1ccc2[nH]c(-c3ccc(N4CCCC4)nc3)nc2c1
- IC50: 1600 nM
- IC50 [1]: > 50000 nM
- IC50 [2]: 1000 nM

Compound: O=C(c1cccc(Cl)c1Cl)N1CCn2c1nc(-c1ccncc1)cc2=O
- IC50: 320 nM
- IC50 [1]: > 50000 nM
- IC50 [2]: 320 nM

Compound: CN(Cc1nnnn1C1CCN(Cc2ccc(-n3ccnc3)cc2)CC1)c1ccc(F)cc1F
- IC50: 320 nM
- IC50 [1]: > 50000 nM
- IC50 [2]: 320 nM

Compound: O=S(=O)(c1ccccc1C(F)(F)F)N1CCN(Cc2ccc(-n3ccnc3)cc2)CC1
- IC50: 250 nM
- IC50 [1]: > 50000 nM
- IC50 [2]: 200 nM

Compound: Cc1nc(N2CCC(C(=O)N3CCC(O)(c4cccnc4)CC3)CC2)nc2ccc(C(C)C)cc12
- IC50: 320 nM
- IC50 [1]: 40000 nM
- IC50 [2]: 400 nM

Compound: NC(=O)c1ccccc1Nc1nc(NC2CCCCC2)nc2[nH]ccc12
- IC50: 1000 nM
- IC50 [1]: 25000 nM
- IC50 [2]: 1000 nM

Compound: O=C(Nc1ccccc1C(=O)Nc1ccccn1)c1ccco1
- IC50: > 50000 nM (inactive)
- IC50 [1]: > 50000 nM
- IC50 [2]: > 50000 nM

Compound: O=C1CN(Cc2ccco2)C2CS(=O)(=O)CC2N1c1ccc(Cl)cc1 (stereo not drawn)
- IC50: > 50000 nM (inactive)
- IC50 [1]: > 50000 nM
- IC50 [2]: > 50000 nM

Compound: CNC(=O)C1Cc2ccccc2N1C(=O)Cc1ccccc1 (stereo not drawn)
- IC50: > 50000 nM (inactive)
- IC50 [1]: > 50000 nM
- IC50 [2]: > 50000 nM

Compound: COc1cc(C(C)C)c(S(C)(=O)=O)cc1C(=O)N1CCN(c2ccccc2Cl)CC1
- IC50: 2500 nM
- IC50 [1]: 20000 nM
- IC50 [2]: 2000 nM

Compound: CC(c1ccccn1)N(C)Cc1nc2ccccc2n1C(C)C (stereo not drawn)
- IC50: 6300 nM
- IC50 [1]: > 50000 nM
- IC50 [2]: 2000 nM

Compound: COc1cc(Cl)c(C)cc1NC(=O)c1ccc([N+](=O)[O-])s1
- IC50: 630 nM
- IC50 [1]: 2500 nM
- IC50 [2]: 500 nM

Compound: CCCCc1cc(Nc2cc(C3CCC3)[nH]n2)nc(N2CCC2C(N)=O)n1 (stereo not drawn)
- IC50: 3200 nM
- IC50 [1]: 790 nM
- IC50 [2]: 1600 nM

Compound: Cc1[nH]n2c(=O)c3c(nc2c1-c1ccc(Br)cc1)CCCC3
- IC50: 1600 nM
- IC50 [1]: > 50000 nM
- IC50 [2]: 790 nM

Compound: CCN(CC)S(=O)(=O)c1ccc(C(=O)Nc2cc(C)nn2-c2nc(C)c(C)c(=O)[nH]2)cc1
- IC50: 1600 nM
- IC50 [1]: > 50000 nM
- IC50 [2]: 320 nM

Compound: COc1ccc(C(C)N(C)c2ncc3c(N)nc(N)nc3n2)cc1F (stereo not drawn)
- IC50: 200 nM
- IC50 [1]: 25000 nM
- IC50 [2]: 63 nM

Compound: CNC(=O)C1Cc2ccccc2N1C(=O)Cc1ccc(OC)cc1 (stereo not drawn)
- IC50: > 50000 nM (inactive)
- IC50 [1]: > 50000 nM
- IC50 [2]: > 50000 nM

Compound: O=C(Nc1nc2ccccc2[nH]1)c1c(O)c2cccc3c2n(c1=O)CC3
- IC50: 16000 nM
- IC50 [1]: 10000 nM
- IC50 [2]: 25000 nM

Compound: O=C(COc1ccccc1)Nc1ccccc1C(=O)Nc1nccs1
- IC50: > 50000 nM (inactive)
- IC50 [1]: > 50000 nM
- IC50 [2]: > 50000 nM

Compound: CS(=O)(=O)NC1CCC(Oc2cc3cnccc3cc2-c2ccsc2)CC1 (stereo not drawn)
- IC50: 160 nM
- IC50 [1]: > 50000 nM
- IC50 [2]: 100 nM

Compound: O=C1CN(C(=O)c2cccc(Nc3ncc(-c4ccc5c(c4)OCO5)cn3)c2)CCN1
- IC50: 790 nM
- IC50 [1]: 63000 nM
- IC50 [2]: 500 nM

Compound: COc1ccc2nc(N(Cc3cccnc3)C(=O)C3CCC3)sc2c1
- IC50: 130 nM
- IC50 [1]: > 50000 nM
- IC50 [2]: 100 nM

Compound: Cc1nc(-c2ccncc2)ncc1C(C)NC(=O)c1ccc(Cl)s1 (stereo not drawn)
- IC50: 32000 nM
- IC50 [1]: > 50000 nM
- IC50 [2]: 20000 nM

Compound: COc1ccc(-c2nc3ccncc3c(=O)n2CCOc2ccccc2)cc1
- IC50: 400 nM
- IC50 [1]: > 50000 nM
- IC50 [2]: 400 nM

Compound: O=C(Nc1ccc(Br)c(Cl)c1)Nc1ccc2c(c1)OCO2
- IC50: 5000 nM
- IC50 [1]: > 50000 nM
- IC50 [2]: 2000 nM

Compound: Cc1[nH]n2c(=O)c3c(nc2c1-c1ccc(F)cc1)CCCC3
- IC50: 2000 nM
- IC50 [1]: > 50000 nM
- IC50 [2]: 790 nM

Compound: Cc1ccc2nc(N(Cc3cccnc3)C(=O)CCc3ccccc3)sc2c1
- IC50: 40 nM
- IC50 [1]: > 50000 nM
- IC50 [2]: 32 nM

Compound: O=C(CN1CCN(S(=O)(=O)c2cccc([N+](=O)[O-])c2)CC1)Nc1ccc(Oc2ccccc2)cc1
- IC50: 2500 nM
- IC50 [1]: > 50000 nM
- IC50 [2]: 1300 nM

Compound: Oc1cccnc1-c1n[nH]c(Cc2ccccc2)n1
- IC50: 7900 nM
- IC50 [1]: 16000 nM
- IC50 [2]: 6300 nM

Compound: CCC(=O)Nc1ccccc1C(=O)Nc1ccccn1
- IC50: > 50000 nM (inactive)
- IC50 [1]: > 50000 nM
- IC50 [2]: > 50000 nM

Compound: O=C(Nc1cccc(Cl)c1)N1CCCCC1c1cccnc1 (stereo not drawn)
- IC50: 200 nM
- IC50 [1]: > 50000 nM
- IC50 [2]: 200 nM

Compound: COc1ccc(OC)c(NC(=O)c2ccc([N+](=O)[O-])o2)c1
- IC50: 13000 nM
- IC50 [1]: 4000 nM
- IC50 [2]: 7900 nM

Compound: COc1ccc(CN2C(=O)C(O)(CC(=O)c3ccncc3)c3cc(Br)ccc32)cc1OC (stereo not drawn)
- IC50: 25000 nM
- IC50 [1]: 2000 nM
- IC50 [2]: 13000 nM

Compound: O=C(Cc1ccc2c(c1)CCC2)Nc1n[nH]c(-c2ccccn2)n1
- IC50: 10000 nM
- IC50 [1]: > 50000 nM
- IC50 [2]: 10000 nM

Compound: CC(C)CC(=O)NC(c1cccs1)c1ccc2cccnc2c1O (stereo not drawn)
- IC50: 1300 nM
- IC50 [1]: 2000 nM
- IC50 [2]: 790 nM

Compound: O=[N+]([O-])c1ccc(-c2nnn(-c3ccc(Cl)cc3)n2)o1
- IC50: 790 nM
- IC50 [1]: 10000 nM
- IC50 [2]: 79 nM

Compound: CCNc1cc(-c2ccccn2)nc(Nc2ccc(OC)cc2)n1
- IC50: 3200 nM
- IC50 [1]: 320 nM
- IC50 [2]: 2500 nM

Compound: CS(=O)(=O)c1cccc(-c2cnc(N)c3c(-c4ccc(CO)cc4)csc23)c1
- IC50: 630 nM
- IC50 [1]: > 50000 nM
- IC50 [2]: 320 nM

Compound: CCOC(=O)c1noc(N)c1-c1ccccc1
- IC50: > 50000 nM (inactive)
- IC50 [1]: > 50000 nM
- IC50 [2]: > 50000 nM

Compound: Cc1ccc(NC(=O)C(C)n2nc([N+](=O)[O-])c(Br)c2C)cc1Cl (stereo not drawn)
- IC50: 6300 nM
- IC50 [1]: > 50000 nM
- IC50 [2]: 3200 nM

Compound: COc1ccc(S(=O)(=O)Nc2ccc(C(=O)Nc3nc(-c4ccccn4)cs3)cc2)cc1
- IC50: 790 nM
- IC50 [1]: 6300 nM
- IC50 [2]: 630 nM

Compound: CN(C)c1ccc(N)cc1CN(CC1CCCO1)S(C)(=O)=O (stereo not drawn)
- IC50: > 50000 nM (inactive)
- IC50 [1]: > 50000 nM
- IC50 [2]: > 50000 nM

Compound: Cc1cc(N(C)C)nc(Nc2ccccc2C)n1
- IC50: 790 nM
- IC50 [1]: > 50000 nM
- IC50 [2]: 500 nM

Compound: COc1ccc(S(=O)(=O)Nc2ccccc2OC)cc1NC(=O)CCCc1c[nH]c2ccccc12
- IC50: 1300 nM
- IC50 [1]: > 50000 nM
- IC50 [2]: 1000 nM
